Measured values published in patent US20210139435A1, “PROSTAGLANDIN ANALOGS AND USES THEREOF” (Lifex Biolabs, Inc., priority 2019, published 2021).

How the values were obtained:
[1] = biological target: T1, mouse Nurr1 full-length (Mus musculus, UniProt Q06219); experiment: Luciferase reporter gene assay for Nurr1 transcriptional activity in SK-N-BE2C cells; format: cell-based; conditions: relative activity over control (luminescence value; 1.0)
T1 construct: pcDNA3.1 Myc/His mouse Nurr1 full-length construct; expressed in transfected cells; host or cells: SK-N-BE2C
T1 sequence (Q06219 whole entry): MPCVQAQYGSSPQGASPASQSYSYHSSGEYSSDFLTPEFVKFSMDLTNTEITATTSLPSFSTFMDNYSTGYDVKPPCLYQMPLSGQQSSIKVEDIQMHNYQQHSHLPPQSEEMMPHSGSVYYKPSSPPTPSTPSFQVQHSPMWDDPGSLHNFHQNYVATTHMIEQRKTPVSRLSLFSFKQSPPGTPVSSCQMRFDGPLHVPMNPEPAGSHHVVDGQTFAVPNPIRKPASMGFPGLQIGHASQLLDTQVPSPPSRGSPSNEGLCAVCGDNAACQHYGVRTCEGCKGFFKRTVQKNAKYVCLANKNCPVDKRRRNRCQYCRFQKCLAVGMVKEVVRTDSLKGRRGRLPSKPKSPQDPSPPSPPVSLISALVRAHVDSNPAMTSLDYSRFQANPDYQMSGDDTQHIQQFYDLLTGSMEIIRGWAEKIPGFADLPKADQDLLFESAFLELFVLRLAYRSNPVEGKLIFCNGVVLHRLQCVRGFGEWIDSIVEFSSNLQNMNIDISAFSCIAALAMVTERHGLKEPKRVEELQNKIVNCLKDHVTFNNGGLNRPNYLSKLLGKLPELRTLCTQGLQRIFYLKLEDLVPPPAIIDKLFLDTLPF
How it was run: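 SK-N-BE2C cells co-transfected with mouse full-length Nurr1, firefly reporter carrying response element and Renilla control (8:1:1), then exposed to compound doses for 24 h at 37 °C. Dual-luciferase readout; firefly RLU normalized to Renilla after background subtraction, then to DMSO-treated wells.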

[2] = biological target: ligand-binding domain (LBD) of Nurr1 (Homo sapiens, UniProt P43354); experiment: Binding of prostaglandins to Nurr1-LBD (NMR titration)
Sequence of ligand-binding domain (LBD) of Nurr1 (P43354 360-595 limits assumed): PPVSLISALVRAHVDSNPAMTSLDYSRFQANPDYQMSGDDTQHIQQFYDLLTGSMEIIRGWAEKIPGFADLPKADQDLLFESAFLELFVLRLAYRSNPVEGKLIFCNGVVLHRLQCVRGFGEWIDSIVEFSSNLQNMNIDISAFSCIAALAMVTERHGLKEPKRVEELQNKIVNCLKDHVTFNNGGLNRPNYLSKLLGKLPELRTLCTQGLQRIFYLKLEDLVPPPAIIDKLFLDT
From the text: Cyclopentenone prostaglandin's A1/A2 are dehydrated metabolites of their precursors, the cyclopentanone prostaglandins E1/E2. In PGE1/E2, a hydroxyl group is attached to the C11 atom, which is responsible for the covalent attachment between PGA1 and Nurr1. This is evident from the electron density observed between the PGA1/A2's C11 atom (Rajan, S. et al. Nat Chem Biol 16, 876-886 (2020); U.S. patent application Ser. No. 16/334,550) and Nurr1's Cys566 sulphur, a characteristic feature of PGA1/A2 binding. […] Based on these one could conclude that both PGA1 and PGE1 can be used to design analogs, preferably using PGE1 which is better suited for chemic synthesis and modifications as it lacks the reactive C11 site, concealed by the hydroxyl group (Rajan, S. et al. Nat Chem Biol 16, 876-886 (2020)). […] One such is the misoprostol, which enhanced Nurr1's transcription function. Thus, we chose PGE1 and Misoprostol as the candidate molecules to make modification.

[3] = biological target: Nurr1 (Homo sapiens, UniProt P43354); experiment: Activation of Nurr1 / Nurr1's transcription function by prostaglandins (stated without method); format: cell-based
Sequence of Nurr1 (P43354 whole entry, species assumed): as the sequence (Q06219 whole entry) above, with S131T, S134G, D354E counted along it

[4] = tested on: 6-OHDA Parkinson's disease model; experiment: 6-OHDA Parkinson's disease model, apomorphine induced rotational behavior, intranasal administration; format: in vivo, C57BL/6 mice; conditions: apomorphine (0.5 mg/kg) induced rotation; daily intranasal 0.2 mg/ml; 6-OHDA mice
Protocol: Mice were randomly divided into […]: Control (n=4); 6-OHDA (6-hydroxydopamine)+(n=7), 6-OHDA+PGE1 (n=8); 6-OHDA+BSC15 (the compound of the present invention) (n=8); 6-OHDA+BSC19 (the compound of the present invention) (n=7).
Week 9-10 C57BL/6 mice were intranasally administered daily with 0.2 mg/ml of compounds to be tested for 3 days before 6-OHDA injection. Stereotaxic surgery was performed by injecting 7.5 μg of 6-OHDA into the left striatum (AP: +0.5 mm, ML: −2.0 mm, VD: −3.5 mm) of the mouse. Compounds to be tested, i.e., PGE1, BSC15 and BSC19 were prepared by double emulsion solvent evaporation of 1:4 molar ratio with 2-hydroxypropyl-β-cyclodextrin. After surgical recovery, the daily intranasal administration continued with a weekly assessment of apomorphine (0.5 mg/kg) induced rotational behavior. Animal care and handling were performed according to the protocol approved by Nanyang Technological University's Institutional Animal Care and Use Committee.

SMILES | Fold activity (1 uM) [1] | also measured
CCCCC(C)(O)C/C=C/[C@H]1[C@H](O)CC(=O)[C@@H]1CCCCCCC(=O)OC (stereo partly shown) [Compound 75, Misoprostol] | A (above 2.0 (high activity)) | –
CCCCC[C@H](O)/C=C/[C@H]1[C@H](O)CC(=O)[C@H]1C/C=C\CCCC(=O)OC(C)C [Compound 76, 8-iso Prostaglandin E2 isopropyl ester] | A (above 2.0 (high activity)) | –
CCCCC(C)(C)[C@H](O)/C=C/[C@H]1[C@H](O)CC(=O)[C@@H]1C/C=C\CCCC(=O)Oc1ccc(NC(=O)c2ccc(NC(C)=O)cc2)cc1 [Compound 77, 16,16-dimethyl Prostaglandin E2 p-(p-acetamidobenzamido) phenyl ester] | A (above 2.0 (high activity)) | –
CCCCCC(=O)CCC1C(=O)CC(O)C1CCCCCCC(=O)O (stereo not shown) [Compound 79, 13,14-dihydro-15-keto Prostaglandin D1] | C (below 1.0 (low activity)) | –
CNC(=O)CCC/C=C\C[C@@H]1[C@@H](/C=C/[C@@H](O)CCc2ccccc2)[C@H](O)C[C@@H]1O [Compound 80, 17-phenyl trinor PGF2a methyl amide] | C (below 1.0 (low activity)) | –
CCCCC(C)(O)C/C=C/[C@H]1[C@@H](O)CC(=O)[C@@H]1CCCCCCC(=O)OC (stereo partly drawn) [Compound 81, 11β-Misoprostol] | C (below 1.0 (low activity)) | –
CCCCCC(=O)/C=C/[C@H]1C(O)CC(=O)[C@H]1C/C=C\CCCC(=O)O (stereo partly shown) [Compound 82, 8-iso-15-keto Prostaglandin E2] | B (1.1~2.0 (moderate)) | –
C[C@@H](O)CCC[C@H](O)/C=C/[C@H]1[C@H](O)CC(=O)[C@@H]1CCCCCCC(=O)O [Compound 83, 19(R)-hydroxy Prostaglandin E1] | B (1.1~2.0 (moderate)) | –
CCCCC(C)(C)[C@H](O)/C=C/[C@H]1[C@H](O)CC(=O)[C@@H]1CC(=O)CCCCC(=O)O [Compound 84, 16,16-dimethyl-6-keto Prostaglandin E1] | B (1.1~2.0 (moderate)) | –
CCCCC[C@H](O)/C=C/[C@H]1[C@@H](O)CC(=O)[C@@H]1CCCCCCC(=O)O [Compound 85, 11b-Prostaglandin E1] | C (below 1.0 (low activity)) | –
CCCCC[C@](C)(O)/C=C/[C@@H]1[C@@H](C/C=C\CCCC(=O)O)[C@@H](O)C[C@H]1O [Compound 86, Carboprost] | C (below 1.0 (low activity)) | –
CCCCC[C@@H](O)/C=C/[C@H]1[C@H](O)CC(=O)[C@@H]1CCCCCCC(=O)O [Compound 87, 15(R)-PGE1] | C (below 1.0 (low activity)) | –
CCCCC[C@H](O)/C=C/[C@H]1[C@H](O)CC(=O)[C@@H]1CCCCCCC(=O)NCCO [Compound 88, Alprostadil Ethanolamide] | B (1.1~2.0 (moderate)) | –
CCCCC[C@H](O)/C=C/[C@H]1[C@H](O)CC(=O)[C@@H]1CCCCCCCO [Compound 89, 1,11a,15S-Trihydroxy-prost-13E-EN-9-ONE] | A (above 2.0 (high activity)) | –
O=C(O)CCCCCCC1C(=O)NC(=O)N1CCC(O)C1CCCCC1 (stereo not shown) [Compound 90, BW245C] | A (above 2.0 (high activity)) | –
CC(C)OC(=O)CCC/C=C\C[C@@H]1[C@@H](CC[C@@H](O)CCc2ccccc2)[C@H](O)C[C@@H]1O [Compound 91, Latanoprost] | B (1.1~2.0 (moderate)) | –
CCCCC[C@H](O)/C=C/[C@@H]1[C@@H](C/C=C\CCCC(=O)O)[C@@H](O)C[C@H]1O.NC(CO)(CO)CO [Compound 92, DinoprostTromethanol] | B (1.1~2.0 (moderate)) | –
CCCCC[C@H](O)/C=C/[C@H]1[C@H](O)CC(=O)[C@@H]1CCCCC(=O)O [Compound 93, 2,3-DINOR PGE1] | C (below 1.0 (low activity)) | –
O=C(CCC/C=C\C[C@@H]1[C@@H](CC[C@@H](O)CCc2ccccc2)[C@H](O)C[C@@H]1O)OCCCCO[N+](=O)[O-] [Compound 95, Latanoprostene bunod] | C (below 1.0 (low activity)) | –
CCCCC[C@H](O)/C=C/[C@H]1C=CC(=O)[C@@H]1CCCCCCC(=O)O [PGA1] | – | direct binding to the ligand-binding domain (LBD) of Nurr1 [2]: directly bind; binding site on Nurr1-LBD by NMR titration [2]: interact at same binding site on Nurr1-LBD; activation of Nurr1 [3]: activate
CCCCC[C@H](O)/C=C/[C@H]1C=CC(=O)[C@@H]1C/C=C\CCCC(=O)O [PGA2] | – | direct binding to the ligand-binding domain (LBD) of Nurr1 [2]: directly bind; activation of Nurr1 [3]: activate
CCCCC[C@H](O)/C=C/[C@H]1[C@H](O)CC(=O)[C@@H]1CCCCCCC(=O)O [PGE1, Prostaglandin E1] | – | direct binding to the ligand-binding domain (LBD) of Nurr1 [2]: directly bind; binding site on Nurr1-LBD by NMR titration [2]: interact at same binding site on Nurr1-LBD; activation of Nurr1 [3]: activate; rotation number [4]: significant reduction
CCCCC[C@H](O)/C=C/[C@H]1[C@H](O)CC(=O)[C@@H]1C/C=C\CCCC(=O)O [PGE2, Prostaglandin E2] | – | direct binding to the ligand-binding domain (LBD) of Nurr1 [2]: directly bind; activation of Nurr1 [3]: activate
CCCCC(C)(O)C/C=C/[C@H]1[C@H](O)CC(=O)[C@@H]1CCCCCCC(=O)OC (stereo partly shown) [misoprostol, Misoprostol] | – | Nurr1's transcription function [3]: enhanced
